The values that follow come from publication PMC12372228 (Journal of the American Chemical Society, 2025).

For one series, the system named is HT-29 colon cancer cells. The series can be described thus: In vitro cytotoxicity, HT-29 colon cancer cells. To be noted: Homo sapiens, HT-29, 72 h. It is filed as cell-based.
Series [1] has as its system HCT-116 colon cancer cells. As to the kind of experiment: In vitro cytotoxicity, HCT-116 colon cancer cells. The settings on record: Homo sapiens, HCT-116, 72 h.
The subject of another series is HT-29 tumors. The series can be described thus: Antitumor efficacy in nude mice bearing HT-29 tumors. The settings on record: 66.7 mg/kg i.v. on days 1, 5, 9. It is filed as in vivo.
The subject of a further series is HCT-116 tumors. The series can be described thus: Antitumor efficacy in nude mice bearing HCT-116 tumors. It is filed as in vivo. The settings on record: 66.7 mg/kg i.v. on days 1, 5, 9; n = 5.
A further series concerns healthy mice. To be noted: dose used is near the reported MTD; cited from earlier work.

pIC50: −log10 of the molar value.

The term pIC50 denotes the IC50 on a negative log10 scale, so that one unit is a factor of ten. A high value points to a small IC50. With `CC[C@@]1(O)C(=O)OCc2c1cc1n(c2=O)Cc2cc3ccccc3nc2-1` [CPT, camptothecin], the pIC50 with HT-29 colon cancer cells is 7.19; in series [1], 7.40.

Turning to `CCc1c2c(nc3ccc(OC(=O)N4CCC(N5CCCCC5)CC4)cc13)-c1cc3c(c(=O)n1C2)COC(=O)[C@]3(O)CC` [irinotecan], the median survival was determined as 33 days with HT-29 tumors (n = 5 (TT 1 study)), 41 days in the series with HT-29 tumors (n = 7 (TT 7E study)) and 23 days in the series on HCT-116 tumors. For the same compound, the “reported maximum tolerated dose (MTD)” value with healthy mice is listed as roughly 66.7 mg/kg.
